Data as given in patent US20060269482A1 (priority 2005, published 2006).

Legend:
MTLn3 xenograft = assay: Tumor growth inhibition in the MTLn3 xenograft model; type: in vivo, rat; settings: 2 to 3 weeks oral dosing at 80 mg/kg once weekly
Procedure: Female Fischer rats obtained from Charles River Laboratories were used when they were ˜13-15 weeks old and weighed ˜150 grams. All animals were examined prior to the initiation of studies to ensure that they were healthy and acclimated to the laboratory environment. Autoclaved water and irradiated food were provided ad libitum, and the animals were maintained in a 12 hour light and dark cycle. MTLn3 cells were grown in RPMI 1640 supplemented with 10% heat-inactivated Fetal Bovine Serum (HI-FBS; GIBCO/Invitrogen, Carlsbad, Calif.) and 2 mM L-glutamine (GIBCO/Invitrogen) and maintained at 37° C. at 5% CO2. The MTLn3 cells were obtained from Hoffmann-La Roche Inc., Nutley, N.J. Approximately 1×10^6 cells/0.2mls/rat in PBS (Phosphate Buffered Saline) Phenol-red free, Ca^+2 and Mg^+2-free were implanted subcutaneously in the right mammary fat pad. The dose selected was 80 mg/kg, determined to be an efficacious dose in this animal model. Tumor growth inhibition in the MTLn3 xenograft model after 2 to 3 weeks of oral dosing at 80 mg/kg once weekly averaged 90% with 2/10 complete regressions. […] Concentrations of COMPOUND A in plasma and tumors were determined in the same three animals per time point. […] Peripheral blood mononuclear cells (PBMCs) were isolated, stimulated ex vivo with mitogen and analyzed by Western blot as described below.

[1] = system: Rb phosphorylation in MTLn3 tumors; assay: Rb phosphorylation in rat MTLn3 tumor xenografts after a single oral dose; type: in vivo; settings: single oral dose 80 mg/kg, Western blot
Procedure: The dose selected was 80 mg/kg, determined to be an efficacious dose in this animal model. Tumor growth inhibition in the MTLn3 xenograft model after 2 to 3 weeks of oral dosing at 80 mg/kg once weekly averaged 90% with 2/10 complete regressions. COMPOUND A was dosed on day 10 post implantation of cells, at which time the tumors were 100-200 mm^3 in size. In this pharmacokinetic/pharmacodynamic experiment, plasma and tumors were collected at 1, 2, 6, 24 and 72 hours post dosing of a single oral dose of COMPOUND A. Tumors were removed and immediately snap frozen in liquid nitrogen and stored at −80° C. until drug concentration analysis. […] Concentrations of COMPOUND A in plasma and tumors were determined in the same three animals per time point. […] Peripheral blood mononuclear cells (PBMCs) were isolated, stimulated ex vivo with mitogen and analyzed by Western blot as described below.
In a second pharmacodynamic study, plasma concentrations of COMPOUND A were similarly analyzed as described above, and Rb phosphorylation in both PBMCs and tumor xenografts treated with a single oral dose of COMPOUND A was examined.
PBMCs were collected by transferring the cells, including attached cells and those in suspension, into 50 ml tubes. […] For Western blotting, total Rb was detected using antibody from Pharmingen (BD Bioscience, San Diego, Calif.) at a dilution of 1:2000. […]

`COc1ccc(F)c(F)c1C(=O)c1cnc(NC2CCN(S(C)(=O)=O)CC2)nc1N` [COMPOUND A, [4-amino-2-(1-methanesulfonylpiperidin-4-ylamino)pyrimidin-5-yl]-(2,3-difluoro-6-methoxyphenyl)methanone] was tested, and the Tumor growth inhibition (MTLn3 xenograft) was 90%, the complete regressions (MTLn3 xenograft) was 2/10 and the “Rb phosphorylation (serine 807/811) in tumor xenografts” value [1] was “reduction in phosphorylation of Rb”.
